Measured values taken from ChEMBL document CHEMBL1201862, “PubChem BioAssay data set” (2004).
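The compound was tested at five concentrations on cells cultured in 96-well plates, with a 48-hour exposure period. Here, GI50 denotes the concentration required for 50% inhibition of growth.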 The source made the active and inactive calls. Cut-off read from the data, not from the text of the source: active = GI50 up to about 1.1 µM and inactive = higher.

Columns and labels:
Assay in all cases: growth of human tumour cells (NCI), 48 h
A549 = test system: A549
ACHN = test system: ACHN
CCRF-CEM = test system: CCRF-CEM
HCT-116 = test system: HCT-116
HOP-92 = test system: HOP-92
Hs-578T = test system: Hs-578T
K562 = test system: K562
KM12 = test system: KM12
NCI-H23 = test system: NCI-H23
NCI-H460 = test system: NCI-H460
OVCAR-3 = test system: OVCAR-3
OVCAR-8 = test system: OVCAR-8
SF-539 = test system: SF-539
SK-MEL-5 = test system: SK-MEL-5
SK-OV-3 = test system: SK-OV-3
SN12C = test system: SN12C
SNB-75 = test system: SNB-75
SR = test system: SR
T47D = test system: T47D
UACC-257 = test system: UACC-257

Structure (SMILES)	GI50 (A549)	GI50 (ACHN)	GI50 (CCRF-CEM)	GI50 (HCT-116)	GI50 (HOP-92)	GI50 (Hs-578T)	GI50 (K562)	GI50 (KM12)	GI50 (NCI-H23)	GI50 (NCI-H460)	GI50 (OVCAR-3)	GI50 (OVCAR-8)	GI50 (SF-539)	GI50 (SK-MEL-5)	GI50 (SK-OV-3)	GI50 (SN12C)	GI50 (SNB-75)	GI50 (SR)	GI50 (T47D)	GI50 (UACC-257)
CN(C)CCCn1c2c3ccccc3ccc2c2oc(=O)c3ccccc3c21	4.53 µM (inactive)	6.79 µM (inactive)	3.31 µM (inactive)	2.48 µM (inactive)	23.8 µM (inactive)	> 36.6 µM (inactive)	2.45 µM (inactive)	3.83 µM (inactive)	6.82 µM (inactive)	2.05 µM (inactive)	5.48 µM (inactive)	3.57 µM (inactive)	4.66 µM (inactive)	9.53 µM (inactive)	14.8 µM (inactive)	5.62 µM (inactive)	2.48 µM (inactive)	0.914 µM (active)	12.1 µM (inactive)	8.65 µM (inactive)
O=C1NC(=S)NC(=O)C1=C(O)Nc1ccccc1	24.1 µM (inactive)	23.6 µM (inactive)	16.4 µM (inactive)	29.1 µM (inactive)	8.34 µM (inactive)	20.2 µM (inactive)	27.7 µM (inactive)	36.6 µM (inactive)	26.3 µM (inactive)	22.7 µM (inactive)	25.5 µM (inactive)	27.8 µM (inactive)	23.8 µM (inactive)	21.5 µM (inactive)	38.9 µM (inactive)	25.8 µM (inactive)	27.7 µM (inactive)	12.8 µM (inactive)	28.2 µM (inactive)	38.1 µM (inactive)
COc1c2c3c4c(c(OC)c(=O)c5c(O)cc(OC)c(c6c(OC)cc(O)c(c1=O)c63)c54)C(C(C)O)C2C(C)=O (stereo not given)	0.353 µM (active)	0.497 µM (active)	0.269 µM (active)	0.385 µM (active)	0.225 µM (active)	0.593 µM (active)	0.234 µM (active)	0.431 µM (active)	0.331 µM (active)	0.226 µM (active)	0.338 µM (active)	0.321 µM (active)	0.296 µM (active)	0.138 µM (active)	0.826 µM (active)	0.485 µM (active)	0.256 µM (active)	0.178 µM (active)	0.454 µM (active)	0.521 µM (active)
CCOC(=O)C(C(=O)OCC)=C1NC2(c3ccccc3Nc3ccccc32)C(C#N)S1 (stereo not given)	4.39 µM (inactive)	14.9 µM (inactive)	6.08 µM (inactive)	9.89 µM (inactive)	4.34 µM (inactive)	19.1 µM (inactive)	7.53 µM (inactive)	4.37 µM (inactive)	4.63 µM (inactive)	3.79 µM (inactive)	0.286 µM (active)	10.9 µM (inactive)	11 µM (inactive)	10 µM (inactive)	12.7 µM (inactive)	5.6 µM (inactive)	16.2 µM (inactive)	2.81 µM (inactive)	4.66 µM (inactive)	12.8 µM (inactive)
CC(=O)c1[nH]c(NCc2ccccc2)c(C(=S)Nc2ccccc2)c1N	27 µM (inactive)	29 µM (inactive)	28.1 µM (inactive)	18.4 µM (inactive)	14.9 µM (inactive)	24 µM (inactive)	24.9 µM (inactive)	17.9 µM (inactive)	38.8 µM (inactive)	22.8 µM (inactive)	26.7 µM (inactive)	18.6 µM (inactive)	1.88 µM (inactive)	17.1 µM (inactive)	> 100 µM (inactive)	22.5 µM (inactive)	> 100 µM (inactive)	28.7 µM (inactive)	22 µM (inactive)	24.2 µM (inactive)
O=C(Nc1ccc2[nH]c(C(=O)N3CC(CCl)c4c3cc([N+](=O)[O-])c3ccccc43)cc2c1)c1cc2ccccc2o1 (stereo not given)	> 100 µM (inactive)	44.8 µM (inactive)	46.1 µM (inactive)	> 100 µM (inactive)	> 58.5 µM (inactive)	> 100 µM (inactive)	> 100 µM (inactive)	> 100 µM (inactive)	> 55.7 µM (inactive)	> 37.5 µM (inactive)	> 100 µM (inactive)	> 55.6 µM (inactive)	> 1100 µM (inactive)	> 100 µM (inactive)	> 100 µM (inactive)	> 100 µM (inactive)	> 56.6 µM (inactive)	95.9 µM (inactive)	> 55.2 µM (inactive)	> 100 µM (inactive)
CC12CCCCC1=C(F)C(F)(F)S2 (stereo not given)	> 79.3 µM (inactive)	22.1 µM (inactive)	8.65 µM (inactive)	22.1 µM (inactive)	23.6 µM (inactive)	> 21.5 µM (inactive)	17.5 µM (inactive)	> 84.7 µM (inactive)	52.1 µM (inactive)	> 100 µM (inactive)	19.7 µM (inactive)	35.8 µM (inactive)	> 70.6 µM (inactive)	46.3 µM (inactive)	> 100 µM (inactive)	> 57.7 µM (inactive)	> 70.6 µM (inactive)	15 µM (inactive)	26.7 µM (inactive)	20.1 µM (inactive)
CC(=O)O[C@H]1C(=O)[C@@]2(C)[C@H]([C@H](OC(=O)C3CCCCC3)[C@]3(O)C[C@H](OC(=O)[C@H](O)[C@@H](NC(=O)OC(C)(C)C)c4ccccc4)C(C)=C1C3(C)C)[C@]1(OC(C)=O)CO[C@@H]1C[C@@H]2O	0.0194 µM (active)	0.413 µM (active)	0.00499 µM (active)	0.00378 µM (active)	0.0148 µM (active)	0.00548 µM (active)	0.00275 µM (active)	0.00731 µM (active)	0.0261 µM (active)	0.00762 µM (active)	0.00125 µM (active)	0.0144 µM (active)	0.00298 µM (active)	0.0107 µM (active)	0.0151 µM (active)	0.0385 µM (active)	0.402 µM (active)	0.00542 µM (active)	0.0678 µM (active)	0.0252 µM (active)
CC(C)(C)OC(=O)c1ccc(NCC2=C(Br)C(=O)C=CC2=O)cc1	57.8 µM (inactive)	17.9 µM (inactive)	2.42 µM (inactive)	17.7 µM (inactive)	14.5 µM (inactive)	19.1 µM (inactive)	11.7 µM (inactive)	33.3 µM (inactive)	19.6 µM (inactive)	36.3 µM (inactive)	10.6 µM (inactive)	16.5 µM (inactive)	21.5 µM (inactive)	15.9 µM (inactive)	> 64.9 µM (inactive)	18.7 µM (inactive)	39.5 µM (inactive)	11.7 µM (inactive)	17.5 µM (inactive)	21.7 µM (inactive)
COc1ccc(/C=C/C(=O)c2ccccc2)cc1OC	20.9 µM (inactive)	15.5 µM (inactive)	2.53 µM (inactive)	6.38 µM (inactive)	18.5 µM (inactive)	25 µM (inactive)	3.21 µM (inactive)	3.13 µM (inactive)	20.7 µM (inactive)	16.6 µM (inactive)	11.4 µM (inactive)	16.3 µM (inactive)	11.1 µM (inactive)	16.8 µM (inactive)	14.2 µM (inactive)	14.6 µM (inactive)	14 µM (inactive)	3.15 µM (inactive)	10.8 µM (inactive)	17.3 µM (inactive)
